Active and inactive are the calls of the source. The rule behind the calls is not given here.
Tests used:
HCT-116 [1] = test: Antiproliferative activity against human HCT116 cells after 72 hrs by MTT assay; assay type: functional, cell-based; settings: HCT-116, 72 h
HT-29 = test: cells; settings: Homo sapiens, HT-29, 72 h
MCF7 = test: cells; settings: Homo sapiens, MCF7, 72 h
A549 = test: cells; settings: Homo sapiens, A549, 72 h
Description: Antiproliferative activity against human A549 cells after 72 hrs by MTT assay

[2] = target: Thymidylate synthase (Homo sapiens) (UniProt P04818); settings: 1 uM
Sequence of Thymidylate synthase (Homo sapiens) (P04818 2-313 limits assumed): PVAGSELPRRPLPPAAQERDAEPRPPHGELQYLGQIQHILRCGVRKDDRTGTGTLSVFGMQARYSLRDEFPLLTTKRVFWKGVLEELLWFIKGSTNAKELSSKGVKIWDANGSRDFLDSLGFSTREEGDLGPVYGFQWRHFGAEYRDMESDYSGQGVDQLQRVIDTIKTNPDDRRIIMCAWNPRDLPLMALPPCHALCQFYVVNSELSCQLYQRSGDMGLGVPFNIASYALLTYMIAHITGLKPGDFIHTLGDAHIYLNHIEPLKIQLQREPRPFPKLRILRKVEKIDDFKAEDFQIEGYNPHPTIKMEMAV
Description: Inhibition of human recombinant His-tagged thymidylate synthase assessed as N5,N10-methylenetetrahydrofolate oxidation to dihydrofolate at 1 uM after 20 mins by UV spectrophotometric analysis relative to control

HeLa = test: Antiproliferative activity against human HeLa cells after 72 hrs by MTT assay; assay type: functional, cell-based
HCT-116 [3] = test: Induction of DNA damage in human HCT116 cells assessed as G2/M checkpoint activation measured as reduction in mitotic index after 2 hrs by immunofluorescence assay; assay type: functional
HCT-116 [4] = test: Induction of DNA damage in human HCT116 cells assessed as formation of marker ser-139 phosphorylated H2AX nuclear foci after 2 hrs by immunofluorescence assay; assay type: functional, cell-based
HCT-116 [5] = test: Cell cycle arrest in human HCT116 cells assessed as accumulation at G2/M phase at IC50 after 24 hrs by propidium iodide staining-based FACS flow cytometric analysis (reference value: 11.54%); assay type: functional
HCT-116 [6] = test: Cell cycle arrest in human HCT116 cells assessed as accumulation at S phase at IC50 after 24 hrs by propidium iodide staining-based FACS flow cytometric analysis (reference value: 25.39%); assay type: functional
HCT-116 [7] = test: Cell cycle arrest in human HCT116 cells assessed as accumulation at G0/G1 phase at IC50 after 24 hrs by propidium iodide staining-based FACS flow cytometric analysis (reference value: 63.07%); assay type: functional
[8] = target: Thymidylate synthase (Homo sapiens) (UniProt P04818); test: Inhibition of human recombinant His-tagged thymidylate synthase assessed as N5,N10-methylenetetrahydrofolate oxidation to dihydrofolate at 50 uM after 20 mins by UV spectrophotometric analysis relative to control
[9] = target: T1, Dihydrofolate reductase (Homo sapiens) (UniProt P00374); test: Inhibition of human dihydrofolate reductase at 500 nM by spectrophotometric analysis relative to control
T1 sequence (whole entry): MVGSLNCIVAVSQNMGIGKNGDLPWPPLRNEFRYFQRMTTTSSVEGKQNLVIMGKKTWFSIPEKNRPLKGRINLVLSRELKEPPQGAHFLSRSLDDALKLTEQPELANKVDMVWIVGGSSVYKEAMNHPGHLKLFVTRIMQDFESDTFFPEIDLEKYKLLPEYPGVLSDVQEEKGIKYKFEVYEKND

Dihydrofolate reductase = target: T2, Dihydrofolate reductase (Homo sapiens, UniProt P00374); test: Inhibition of human dihydrofolate reductase by spectrophotometric analysis
T2 sequence (P00374 whole entry): T1 sequence (whole entry)

SMILES | IC50 (HCT-116 [1]) [µM] | IC50 (HT-29) [µM] | IC50 (MCF7) [µM] | IC50 (A549) [µM] | inhibition [2] [%] | IC50 (HeLa) [µM] | Ratio (HCT-116 [3]) | Activity (HCT-116 [4]) | Activity (HCT-116 [5]) [%] | Activity (HCT-116 [6]) [%] | Activity (HCT-116 [7]) [%] | inhibition [8] [%] | inhibition [9] [%] | IC50 (Dihydrofolate reductase) [µM]
Cc1ccccc1N1CCN(C(=S)SCc2ccc3nc(N)nc(N)c3c2)CC1 | 11.8 | 2.95 | 4.23 | 3.92 | – | – | – | – | – | – | – | – | – | –
Cc1nc(=O)c2cc(CN(C)c3ccc(C(=O)N[C@@H](CCC(=O)O)C(=O)O)s3)ccc2[nH]1 | – | – | – | – | 94.2 | – | – | – | – | – | – | – | – | –
Nc1nc(N)c2cc(CSC(=S)N3CCN(c4ccc(Cl)cc4)CC3)ccc2n1 | 7.38 | 7.48 | 4.88 | 5.21 | – | 6.99 | – | – | – | – | – | – | – | –
Nc1nc(N)c2cc(CSC(=S)N3CCN(c4ccccc4F)CC3)ccc2n1 | – | 5.42 | 4.84 | 6.46 | – | 6.66 | – | – | – | – | – | – | – | –
Nc1nc(N)c2cc(CSC(=S)N3CCN(Cc4ccccc4)CC3)ccc2n1 | 4.91 | 8.49 | 8.46 | 3.31 | – | 8.35 | – | – | – | – | – | – | – | –
Nc1nc(N)c2cc(CSC(=S)N3CCN(c4ccc(F)cc4F)CC3)ccc2n1 | 5.15 | 5.02 | 3.67 | 5.12 | – | 3.8 | – | – | – | – | – | – | – | –
CC[C@@]1(O)C(=O)OCc2c1cc1n(c2=O)Cc2cc3ccccc3nc2-1 [CAMPTOTHECIN] | – | – | – | – | – | – | 0.64 | – | – | – | – | – | – | –
O=c1[nH]cc(F)c(=O)[nH]1 [FLUOROURACIL] | 5.53 | 24.5 | 32.2 | 3.52 | – | 43.7 | – | inactive | 6.81 | 47.75 | 45.44 | – | – | –
COc1ccc(N2CCN(C(=S)SCc3ccc4nc(N)nc(N)c4c3)CC2)cc1 | 2.27 | 1.77 | 1.58 | 1.59 | – | 1.66 | 0.76 | Active | 14.29 | 33.34 | 52.36 | 15.2 | 24 | 5.96
Nc1nc(N)c2cc(CSC(=S)N3CCN(c4ccc([N+](=O)[O-])cc4)CC3)ccc2n1 | 4.68 | 3.32 | 1.47 | 1.91 | – | 1.66 | 0.67 | Active | 15.8 | 39.46 | 44.74 | 14.1 | 29 | 1.61
Nc1nc(N)c2cc(CSC(=S)N3CCN(c4ccccn4)CC3)ccc2n1 | 5.96 | 6.2 | 5.11 | 3.96 | – | 5.09 | – | – | – | – | – | – | – | –
CC(=O)c1ccc(N2CCN(C(=S)SCc3ccc4nc(N)nc(N)c4c3)CC2)cc1 | 8.26 | 2.28 | 2.49 | 2.55 | – | 2.04 | – | – | – | – | – | – | – | –

Source: ChEMBL document CHEMBL2385040, “Synthesis and antiproliferative activity of 4-substituted-piperazine-1-carbodithioate derivatives of 2,4-diaminoquinazoline” (Eur J Med Chem, 2013)
